Laboratory results taken from ChEMBL document CHEMBL1124243, “Application of the message-address concept in the design of highly potent and selective non-peptide delta opioid receptor antagonists” (J Med Chem, 1988).
Active and inactive are the calls of the source. No cut-off for these calls is given here.

Experiments:
[1] = molecular target: Delta-type opioid receptor (Mus musculus) (UniProt P32300); experiment: Antagonistic activity against Opioid receptor delta 1 using [D-Ala2,D-Leu5]enkephalin in mouse vas deferens preparation; format: functional
Delta-type opioid receptor (Mus musculus), sequence (P32300 whole entry): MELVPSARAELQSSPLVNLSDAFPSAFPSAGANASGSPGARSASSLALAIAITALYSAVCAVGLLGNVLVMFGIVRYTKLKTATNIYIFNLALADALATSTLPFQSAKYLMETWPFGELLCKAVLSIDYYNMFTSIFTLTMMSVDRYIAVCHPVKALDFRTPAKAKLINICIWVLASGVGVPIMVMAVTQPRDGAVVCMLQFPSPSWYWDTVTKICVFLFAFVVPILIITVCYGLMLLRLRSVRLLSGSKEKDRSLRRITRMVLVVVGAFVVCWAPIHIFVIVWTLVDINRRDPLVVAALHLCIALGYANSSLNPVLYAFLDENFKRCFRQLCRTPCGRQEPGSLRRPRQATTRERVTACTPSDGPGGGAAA

[2] = molecular target: Kappa-type opioid receptor (Cavia porcellus) (UniProt P41144); experiment: Antagonistic activity against Opioid receptor kappa 1 using ethylketazocine in guinea pig ileum preparation; format: functional, tissue-based
Kappa-type opioid receptor (Cavia porcellus), sequence (P41144 whole entry): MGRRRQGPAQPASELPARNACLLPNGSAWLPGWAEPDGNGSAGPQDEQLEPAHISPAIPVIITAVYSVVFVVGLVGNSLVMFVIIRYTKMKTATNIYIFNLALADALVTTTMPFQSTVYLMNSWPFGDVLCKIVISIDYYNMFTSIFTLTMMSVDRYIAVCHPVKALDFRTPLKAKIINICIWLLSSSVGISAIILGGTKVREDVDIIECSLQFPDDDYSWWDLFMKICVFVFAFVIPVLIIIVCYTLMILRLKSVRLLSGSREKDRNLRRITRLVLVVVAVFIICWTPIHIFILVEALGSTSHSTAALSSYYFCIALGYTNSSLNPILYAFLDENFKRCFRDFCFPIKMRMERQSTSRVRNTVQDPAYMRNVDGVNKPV

[3] = molecular target: Mu-type opioid receptor (Cavia porcellus) (UniProt P97266); settings: Ileum
Mu-type opioid receptor (Cavia porcellus), sequence (P97266 whole entry): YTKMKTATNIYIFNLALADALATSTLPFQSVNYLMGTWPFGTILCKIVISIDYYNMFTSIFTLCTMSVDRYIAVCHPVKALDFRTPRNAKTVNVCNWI
Description: Antagonistic activity against Opioid receptor mu 1 receptor using morphine in guinea pig ileum preparation

[4] = molecular target: Mu-type opioid receptor (Cavia porcellus) (UniProt P97266); experiment: Antagonistic activity against Opioid receptor mu 1 using morphine in guinea pig ileum preparation; format: functional, tissue-based
[5] = molecular target: Mu-type opioid receptor (Cavia porcellus) (UniProt P97266); experiment: Antagonistic activity against Opioid receptor mu 1 using morphine in guinea pig ileum preparation; D means no significant antagonism at 200 nM; format: functional, tissue-based
[6] = molecular target: Kappa-type opioid receptor (Cavia porcellus) (UniProt P41144); experiment: Antagonistic activity against Opioid receptor kappa 1 using ethylketazocine in guinea pig ileum preparation; No significant antagonism at 200 nM; format: functional, tissue-based

SMILES	Ke [1] [nM]	Ke [2] [nM]	Ke [3] [nM]	Ke [4] [nM]	Ke [5]	Ke [6]
Oc1ccc2c3c1O[C@H]1c4[nH]c5ccccc5c4C[C@@]4(O)[C@@H](C2)N(CC2CC2)CC[C@]314	0.21	58	32	–	–	–
Oc1ccc2c3c1O[C@H]1c4oc5ccccc5c4C[C@@]4(O)[C@@H](C2)N(CC2CC2)CC[C@]314	1.1	48	–	27	–	–
Oc1ccc2c3c1O[C@H]1c4[nH]c5ccc(F)cc5c4C[C@@]4(O)[C@@H](C2)N(CC2CC2)CC[C@]314	2	46	61	–	–	–
Cc1ccc2[nH]c3c(c2c1)C[C@@]1(O)[C@H]2Cc4ccc(O)c5c4[C@@]1(CCN2CC1CC1)[C@H]3O5	4.2	–	–	–	inactive	inactive
COc1ccc2[nH]c3c(c2c1)C[C@@]1(O)[C@H]2Cc4ccc(O)c5c4[C@@]1(CCN2CC1CC1)[C@H]3O5	5.7	13	–	63	–	–
